In BindingDB's records for doi:10.1038/nchembio.2168 (Novartis Institutes, 2016):
pIC50: −log10 of the molar value.

Experiments:
[1] = biological target: T1, Serine/threonine-protein kinase WNK1 [1-491] (Homo sapiens, UniProt Q9H4A3); test: In vitro MBP Phosphorylation Assay (MBP); conditions: pH 7.3; 25 °C
T1 construct: 1-491
Experimental: (§1) Each well of the MBP-coated ScintiPlates held 100 ul of a solution containing 20 mM HEPES pH 7.3, 5 mM MnCl2 (WNK1 and WNK4) or 3 mM MnCl2 (WNK2 and WNK3), 0.01% Tween-20 (WNK1, WNK3 and WNK4) or 0.02% Tween-20 (WNK2), 1 mM TCEP, 2% DMSO, 1 uM ATP (WNK1, WNK3 and WNK4) or 2 uM ATP (WNK2), 1 uCi [gamma-33P]ATP (WNK1, WNK2, WNK4) or 0.25 uCi [gamma-33P]ATP (WNK3), WNK kinase enzyme (5 nM WNK1, 10 nM WNK2, 5 nM WNK3 or 10 nM WNK4) and compound at the desired concentration. The plate was sealed with a clear adhesive cover and mixed for 20 s at 800 r.p.m. on a bench top plate shaker. The plate was then placed in a 25 °C shaking incubator at 175 r.p.m for 3 h (WNK1 and WNK4), 2 h (WNK3) or 1 h (WNK2). The kinase reaction was stopped by the addition of 50 ul of 45 mM EDTA, 0.01% Tween-20, and 20 mM HEPES, pH 7.3. The content of each well was then aspirated, and the well was washed three times with 300 ul of 150 mM NaCl, 0.02% Tween-20, and 50 mM Tris-HCl pH 7.4. Incorporation of 33P into the bound MBP substrate was measured using a MicroBeta TriLux LSC and Luminescence plate counter.

[2] = biological target: T2, Serine/threonine-protein kinase WNK1 [1-434] (Homo sapiens, UniProt Q9H4A3); test: In vitro MBP Phosphorylation Assay (MBP); conditions: pH 7.3; 25 °C
T2 construct: 1-434
Experimental: as §1

[3] = biological target: T3, Serine/threonine-protein kinase WNK1 [1-444] (Homo sapiens, UniProt Q9H4A3); test: In vitro MBP Phosphorylation Assay (MBP); conditions: pH 7.3; 25 °C
T3 construct: 1-444
Experimental: as §1

[4] = biological target: T4, Serine/threonine-protein kinase WNK1 [166-489] (Homo sapiens, UniProt Q9H4A3); test: In vitro MBP Phosphorylation Assay (MBP); conditions: pH 7.3; 25 °C
T4 construct: 166-489
Experimental: as §1

[5] = biological target: T1, Serine/threonine-protein kinase WNK1 [1-491]; test: In vitro OSR1 Phosphorylation Assay (OSR1); conditions: pH 7.3; 4 °C
Experimental: 0.2 nM GST-hWNK1(1-491) (Carna Biosciences, cat# 05-179); 3.5 ug/ml GST-OSR1; 20 mM HEPES; 0.01% Tween; 5 mM MnCl2; 1 mM TCEP; 2% DMSO; 0.5 uM ATP, pH 7.3 (total volume 40 ul) were incubated for 15 min at room temperature. Samples were […] mixed with Laemmli sample buffer and resolved on a 10% Tris-glycine gel, and transferred to nitrocellulose. Membranes were blocked in 5% non-fat milk dissolved in Tris-buffered saline with tween (TBST) for 30 min, washed 3x for 10 min in TBST and incubated with phospho-OSR1 antibody (1:1,000; see Reagents section) at […] overnight. Blots were again washed with TBST and incubated with HRP-conjugated anti-rabbit IgG (1:2,500; catalog # 7074, Cell Signaling) at room temperature for 30 min. Blots were again washed and developed with SuperSignal West Femto Maximum Sensitivity Chemiluminescent Substrate for HRP (Thermo Scientific), and quantified with a Fujifilm LAS-3000 Luminescent Image Analyzer.

T1 sequence (Q9H4A3 1-491): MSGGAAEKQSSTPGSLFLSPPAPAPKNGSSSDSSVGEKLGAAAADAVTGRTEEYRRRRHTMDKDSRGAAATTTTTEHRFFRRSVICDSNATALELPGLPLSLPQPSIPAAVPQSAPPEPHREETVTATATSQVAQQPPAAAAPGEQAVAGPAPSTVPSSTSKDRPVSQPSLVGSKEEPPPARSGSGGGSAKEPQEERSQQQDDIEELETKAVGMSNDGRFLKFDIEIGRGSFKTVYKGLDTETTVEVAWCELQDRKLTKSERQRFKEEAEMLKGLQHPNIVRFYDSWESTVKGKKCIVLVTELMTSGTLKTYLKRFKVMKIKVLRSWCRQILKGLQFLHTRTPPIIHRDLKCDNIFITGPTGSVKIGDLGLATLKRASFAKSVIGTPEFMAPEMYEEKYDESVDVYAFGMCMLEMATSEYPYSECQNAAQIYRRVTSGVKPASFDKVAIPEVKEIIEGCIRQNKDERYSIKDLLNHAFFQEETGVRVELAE
T2 sequence (Q9H4A3 1-434): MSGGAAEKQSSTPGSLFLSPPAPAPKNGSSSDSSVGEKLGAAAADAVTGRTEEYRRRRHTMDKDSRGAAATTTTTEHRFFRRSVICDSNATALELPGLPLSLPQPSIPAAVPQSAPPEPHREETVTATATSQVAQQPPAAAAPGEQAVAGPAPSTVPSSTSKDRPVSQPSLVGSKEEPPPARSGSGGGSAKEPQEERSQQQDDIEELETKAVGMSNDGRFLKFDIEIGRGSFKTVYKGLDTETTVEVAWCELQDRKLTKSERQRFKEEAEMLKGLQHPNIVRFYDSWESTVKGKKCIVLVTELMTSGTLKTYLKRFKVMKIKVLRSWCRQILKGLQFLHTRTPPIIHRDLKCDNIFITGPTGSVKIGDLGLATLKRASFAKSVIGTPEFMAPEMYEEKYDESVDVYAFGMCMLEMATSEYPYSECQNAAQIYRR
T3 sequence (Q9H4A3 1-444): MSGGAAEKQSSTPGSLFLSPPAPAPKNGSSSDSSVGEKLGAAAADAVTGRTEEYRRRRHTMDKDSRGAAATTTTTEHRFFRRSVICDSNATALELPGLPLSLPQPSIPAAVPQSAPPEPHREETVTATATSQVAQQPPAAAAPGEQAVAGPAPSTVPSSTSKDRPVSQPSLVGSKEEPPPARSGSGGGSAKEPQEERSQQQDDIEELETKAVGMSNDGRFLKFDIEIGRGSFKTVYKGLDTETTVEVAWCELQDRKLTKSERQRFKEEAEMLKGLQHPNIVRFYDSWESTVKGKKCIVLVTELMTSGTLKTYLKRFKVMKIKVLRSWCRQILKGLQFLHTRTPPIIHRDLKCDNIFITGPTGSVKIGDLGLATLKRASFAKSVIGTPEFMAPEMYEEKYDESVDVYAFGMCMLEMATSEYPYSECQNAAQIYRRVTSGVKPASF
T4 sequence (Q9H4A3 166-489): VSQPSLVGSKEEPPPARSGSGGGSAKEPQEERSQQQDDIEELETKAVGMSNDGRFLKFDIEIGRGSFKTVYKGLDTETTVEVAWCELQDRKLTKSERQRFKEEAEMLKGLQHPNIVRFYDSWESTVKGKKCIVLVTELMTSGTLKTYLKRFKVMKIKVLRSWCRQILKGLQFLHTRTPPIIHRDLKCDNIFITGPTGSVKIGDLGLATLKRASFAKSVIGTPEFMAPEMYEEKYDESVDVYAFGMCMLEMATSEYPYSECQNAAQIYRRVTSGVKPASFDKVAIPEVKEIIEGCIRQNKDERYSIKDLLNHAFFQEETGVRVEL

| pIC50 [1] | pIC50 [2] | pIC50 [3] | pIC50 [4] | pIC50 [5] | Compound |
| --- | --- | --- | --- | --- | --- |
| 6.07 |  |  |  |  | COc1ccc(CC(=O)N2CCC(n3cncc3C(=O)NCCc3ccccc3)C2)cc1 [(R)-1-(1-(2-(4-methoxyphenyl)acetyl)pyrrolidin-3-yl)-N-phenethyl-1H-imidazole-5-carboxamide (1)] |
| 8.30 | 8.22 | 8.05 | 9.00 | 7.39 | CC(C)(C)NC(=O)c1cncn1C1CCN(c2ccc(-c3nnc(C(F)(F)F)o3)cc2)CC1 [WNK463 (2)] |
